Series [1] deals with MCF7. Nature of the series: Inhibition of homologous recombinant repair in human MCF7 cells expressing RECQL5 wildtype assessed as stabilization of RAD51-RECQL5 interaction by measuring increase in RAD51 foci formation at 20 uM measured after 4 to 24 hrs by immunofluorescence microscopic analysis. Format: functional, cell-based. Particulars: time 4-24 hrs.
Series [2] can be described thus: Toxicity in nude mouse xenografted with human MCF7 cells assessed as morphological changes in heart at 50 mg/kg, po administered via oral gavage and measured after 30 days. Format: organism-based. Particulars: in vivo, 720 h, time 30 day.
Series [3] deals with MCF7. The experiment in a line: Induction of DNA damage in human MCF7 cells expressing wild type RECQL5 assessed as double strand breaks by measuring increase in phosphorylation of ATR at S428 residue at 20 uM measured up to 24 hrs by Western blot analysis. In kind it is functional, cell-based. Particulars: time hrs <=24.
Series [4] concerns MCF7. The experiment in a line: Induction of DNA damage in RECQL5 knock out human MCF7 cells assessed as double strand breaks by measuring increase in phosphorylation of p53 at S15 residue at 20 uM measured up to 24 hrs by Western blot analysis. The settings on record: time hrs <=24. Format: functional, cell-based.
The test system of series [5] is MCF7. The experiment in a line: Effect on NHEJ-mediated double strand break repair in human MCF7 cells expressing wild type RECQL5 assessed as accumulation of KU80 on chromatin at 20 uM measured up to 24 hrs by Western blot analysis. In kind it is cell-based. The settings on record: time hrs <=24.
For series [6], the system named is MCF7. Nature of the series: Effect on NHEJ-mediated double strand break repair in RECQL5 knock out human MCF7 cells assessed as accumulation of KU80 on chromatin at 20 uM measured up to 24 hrs by Western blot analysis. Format: cell-based. The settings on record: time hrs <=24.

SMILES strings stand for the structures. Calls of active or inactive are those of the source. The rule behind the calls is not given here.

Take `O=C(Nc1cc(C(F)(F)F)cc(C(F)(F)F)c1)N[C@@H](c1ccccc1)c1nnc(SCc2ccccc2)o1`: the inhibition result in series [1] was “Active”. Further, the Activity result in series [2] is reported as “Non-Toxic”. The result in series [3] was Active. The result in series [4], in series [5] and in series [6] was inactive.

(Values after ChEMBL document CHEMBL5038569, “Targeting RECQL5 Functions, by a Small Molecule, Selectively Kills Breast Cancer in Vitro and in Vivo” (J Med Chem, 2021).)
